A short description of data set [1]: Hepatocyte stability, rat. In kind it is in vitro ADME. The settings on record: read-out: Hep CLint,u rat (converted). On the procedure: (§1) The hepatocyte stability assay was performed by incubation of test compound at 1 μM, 0.03% DMSO in modified Krebs–Henseleit buffer with suspension of pooled cryopreserved hepatocytes (BioIVT, Hicksville, NY, USA) from mouse, rat, dog, or human (BioIVT, Hicksville, NY, USA) at 0.5 million viable hepatocytes/mL. Before adding the hepatocytes (time zero) and after 10, 20, 45, 90, 120, and 180 min of incubation (n = 2) at 37 °C while gently shaking, the reaction was stopped and proteins were precipitated with an excess of acetonitrile containing an internal standard. The samples were mixed, centrifuged, and filtered, and the supernatant was analyzed by liquid chromatography–mass spectrometry/mass spectrometry (LC–MS/MS). The instrument responses (peak areas/IS peak areas) were referenced to the zero-time point samples (considered as 100%) in order to determine the percentage of compound remaining.

The target of data set [2] is T1, ΔF508 CFTR (Homo sapiens, UniProt P13569, DEL508-508).
T1 construct: host or cells: CFBE41o- TetON cells, expression induced with doxycycline
Put plainly: CSE-HRP: cell surface expression horseradish peroxidase assay in CFBE41o- cells. In kind it is cell-based. The settings on record: no additional corrector; for Emax: CFBE41o-, relative to lumacaftor or 5 (3 μM) positive control, read-out: CSE-HRP % max activation; for EC50: 24 h incubation, 33 °C, geometric mean, read-out: CSE-HRP EC50. On the procedure: A CFBE41o– cell line stably expressing ΔF508 CFTR harboring an HRP-tag in the fourth extracellular loop was obtained from Professor Gergely Lukacs (Department of Physiology, McGill University, Montreal, QC, Canada).[25] Cells were grown in Eagle’s minimal essential medium (Life Technologies) supplemented with 10% FBS, 1% L-glutamine (Life Technologies), 10 mM HEPES (Life Technologies), 200 μg/mL Geneticin (Life Technologies), and 3 μg/mL puromycin (Sigma) in culture flasks coated with 0.01% bovine serum albumin (BSA) (Sigma), 30 μg/mL Purecol (Nutacon), and 0.001% human fibronectin (Sigma).
CFBE41o– TetON cells expressing HRP tagged ΔF508-CFTR were seeded in white 384-well plates (Greiner) at a density of 2000 cells per well. Medium containing 500 ng/mL doxycycline was used to induce expression of ΔF508-CFTR-HRP. After 3 days, cells were treated with corrector or potentiator compounds and transferred to an incubator at 33 °C. On day 4, cells were washed five times with PBS containing Ca^2+ and Mg^2+ using a Bio-Tek plate washer and incubated with a chemiluminescent HRP substrate (SuperSignal West Pico Chemiluminescent Substrate, Thermo Scientific) for 15 min. Chemiluminescence was measured using an Envision plate reader (PerkinElmer). Dose response data was fitted using a 4 parameter hill function of the form Response = neg control + (pos control – neg control)/(1 + 10^(log EC50-concentration)/HillSlope) to determine EC50 values. Percentage efficacy was calculated using the following formula: (max response – neg control)/(C1 response – neg control).

A short description of data set [3]: Liver microsomal stability, rat. It is filed as in vitro ADME. To be noted: liver microsomes; rat microsomes; calculated from measured fumic; read-out: Mic CLint,u rat (converted). On the procedure: (§2) The microsomal stability assay was performed by incubation of test compound at 1 μM, 0.2% DMSO in phosphate buffer with microsomes (0.5 mg/mL) from mouse, rat, dog, or human (Xeno-Tech, Kansas City, KS, USA), and cofactors with final concentrations of 0.6 U/mL glucose-6- phosphate dehydrogenase, 3.3 mM MgCl2, 3.3 mM glucose-6-phosphate, and 1.3 mM nicotinamide adenine dinucleotide phosphate (NADP)+. Before addition of the microsomes (time zero) and after 30 min of incubation at 37 °C with shaking, the reaction was stopped, and proteins were precipitated with an excess of acetonitrile containing an internal standard. The samples were mixed, centrifuged, and filtered, and the supernatant was analyzed by liquid chromatography–mass spectrometry/mass spectrometry (LC–MS/MS). The instrument responses (peak areas/IS peak areas) were referenced to the zero-time point samples (considered as 100%) to determine the percentage of compound remaining. In vitro unbound intrinsic clearance (CLint,u) was calculated from the half-life using the following equations: [drawing 1] [drawing 2] To take into account nonspecific binding, scaled CLint values were corrected with the fraction unbound in microsomes (fu, mic). [drawing 3]
(§3) Equilibrium dialysis is a technique used to measure microsomal binding. Briefly, the assay was performed in a 96-well Teflon dialysis unit (Dialysis Device), where each well consists of two chambers separated by a dialysis membrane (membrane strips, MW cutoff 12–14 kDa, HTDialysis). Inactivated liver microsomes (pooled human liver microsomes, Xenotech, protein concentration of 0.5 mg/mL) spiked with a compound (1 μM final concentration, 0.5% DMSO) were added to one chamber and buffer solution (50 mM PBS Buffer) was added to the other side of the well. Each compound was analyzed in duplicate for 4 h at 37 °C. At the end of incubation, both chambers were sampled and analyzed by LC-MS/MS. The unbound microsomal fraction (fu, mic) was calculated as the concentration in buffer divided by the total concentration in the microsomal side. Positive controls included in this assay are terfenadine and verapamil.

Data set [4] is described as follows: Liver microsomal stability, human. In kind it is in vitro ADME. To be noted: liver microsomes; human microsomes; calculated from measured fumic; read-out: Mic CLint,u human (converted). On the procedure:
as §2, §3

Data set [5] is described as follows: Hepatocyte stability, human. It is filed as in vitro ADME. To be noted: human hepatocytes; read-out: Hep CLint,u human. On the procedure:
as §1

Data set [6] is described as follows: Plasma protein binding, rat. It is filed as in vitro ADME. To be noted: pH 7.4, read-out: PPB % rat (converted). The procedure: (§4) Plasma protein binding was determined by equilibrium dialysis using the Pierce Red Device plate with inserts (ThermoScientific). Test compound at 5 μM (0.5% DMSO) spiked in freshly thawed human, rat, mouse, or dog plasma (Bioreclamation INC, Westbury, NY, USA) was dialyzed against phosphate-buffered saline (PBS, pH 7.4) at 37 °C under shaking for 4 h. Aliquots were taken from each side of the well, and matrix matched. Proteins were precipitated with an excess of acetonitrile, samples were mixed and centrifuged, and the supernatant was analyzed by liquid chromatography–mass spectrometry/mass spectrometry (LC–MS/MS). Addition of compound peak areas in the buffer chamber and the plasma chamber was considered to be 100% compound.

In data set [7] the target is T1, ΔF508 CFTR. Put plainly: TECC (transepithelial clamp circuit) in primary CF-derived HBE cells. In kind it is cell-based. To be noted: footnote b: after 24 h incubation a fixed 1 μM C2 corrector concentration was added during the recording. The procedure:
Bronchial epithelial cells isolated from the lungs of patients with CF homozygous for the ΔF508 CFTR mutation were obtained from McGill University (Montreal, QC, Canada) or the University of North Carolina (Chapel Hill, NC, United States). Cells were isolated from lungs obtained from donors undergoing planned transplantation. These primary cells were cultured directly on type IV collagen-coated polycarbonate Transwell supports with a diameter of 6.5 mm and pore size of 0.4 μm (Costar, #3397) for 18–25 days in an air–liquid interface, essentially as previously described for TECC.[23]
Twenty-four hours prior to the electrophysiological recording, corrector and/or potentiator compounds were added on both the apical and basolateral sides. TECC recordings were performed by using the TECC instrument developed and sold by EP Design (Bertem, Belgium). During the recording, the epithelial cells were bathed in a NaCl-Ringer solution (120 mM NaCl, 20 mM HEPES, 1.2 mM CaCl2, 1.2 mM MgCl2, 0.8 mM KH2PO4, 0.8 mM K2HPO4, 5 mM glucose, pH 7.4) on both the basolateral (640 μL) and the apical (160 μL) sides and kept at 37 °C. Corrector and potentiator compounds were readded at the same concentration used during the 24 h pretreatment. Apical amiloride was used to inhibit the endogenous ENaC currents (100 μM), while forskolin (10 μM) was applied on both the apical and basolateral sides to stimulate CFTR. Measurements were done during a 20 min time frame with recordings every 2 min. The transepithelial potential and transepithelial resistance were measured in an open circuit and transformed to Ieq using Ohm’s law. The maximal increase in Ieq (ΔIeq, the difference in current before and after forskolin or potentiator treatment) was used as a measure for the increased CFTR activity. EC50 values were generated by measuring the impact of different concentrations of compounds on ΔIeq in primary cells. For this purpose, each transwell was treated with a different compound concentration. CFTRInh-172 was added apically at 10 μM to assess the specificity of the response. Dose response data was fitted using a 3-parameter hill function of the form Response = Bottom + (Top – Bottom)/(1 + (EC50/concentration)) to determine EC50 values. Percentage efficacy was calculated using the following formula: (max response – neg control)/(C1 response – neg control).

The nature of a further data set: PK rat. It is filed as in vivo. To be noted: iv. On the procedure: These studies were performed with naïve male Sprague–Dawley rats (Janvier France, 6–8 weeks old). Rats were dosed iv via a bolus in the tail vein with a dose level of 0.1 mg/kg or orally as a single esophageal gavage with a dose level of 5 mg/kg. For the iv route, the compound was formulated in PEG200/water (60/40; v/v). For the oral route, the compound was formulated in MC 0.5% (2/98) as a homogeneous suspension. Before the oral dosing, the animals were deprived of food for at least 12 h before compound administration until 3 h after administration. All animals had free access to the tap water. Blood samples were collected under light anesthesia and placed into tubes containing Li-heparin as an anticoagulant. Blood samples were collected up to 24 h after dosing (n = 3 rats per route). After centrifugation, the resulting plasma samples were assayed by LC-MS/MS with a nongood laboratory practice (non-GLP)-validated method. PK parameters were calculated by noncompartmental analysis using WinNonlin software (Certara, Princeton, NJ, USA).

Data set [8] can be described thus: Plasma protein binding, human. The settings on record: human, plasma, pH 7.4, human plasma; read-out: PPB % human (converted). In kind it is in vitro ADME. On the procedure:
as §4

Setting [9] is: pooled cryopreserved hepatocytes in suspension.

Molecules are shown by their SMILES.

T1 sequence (P13569 with tags, fused parts or gaps DEL508-508): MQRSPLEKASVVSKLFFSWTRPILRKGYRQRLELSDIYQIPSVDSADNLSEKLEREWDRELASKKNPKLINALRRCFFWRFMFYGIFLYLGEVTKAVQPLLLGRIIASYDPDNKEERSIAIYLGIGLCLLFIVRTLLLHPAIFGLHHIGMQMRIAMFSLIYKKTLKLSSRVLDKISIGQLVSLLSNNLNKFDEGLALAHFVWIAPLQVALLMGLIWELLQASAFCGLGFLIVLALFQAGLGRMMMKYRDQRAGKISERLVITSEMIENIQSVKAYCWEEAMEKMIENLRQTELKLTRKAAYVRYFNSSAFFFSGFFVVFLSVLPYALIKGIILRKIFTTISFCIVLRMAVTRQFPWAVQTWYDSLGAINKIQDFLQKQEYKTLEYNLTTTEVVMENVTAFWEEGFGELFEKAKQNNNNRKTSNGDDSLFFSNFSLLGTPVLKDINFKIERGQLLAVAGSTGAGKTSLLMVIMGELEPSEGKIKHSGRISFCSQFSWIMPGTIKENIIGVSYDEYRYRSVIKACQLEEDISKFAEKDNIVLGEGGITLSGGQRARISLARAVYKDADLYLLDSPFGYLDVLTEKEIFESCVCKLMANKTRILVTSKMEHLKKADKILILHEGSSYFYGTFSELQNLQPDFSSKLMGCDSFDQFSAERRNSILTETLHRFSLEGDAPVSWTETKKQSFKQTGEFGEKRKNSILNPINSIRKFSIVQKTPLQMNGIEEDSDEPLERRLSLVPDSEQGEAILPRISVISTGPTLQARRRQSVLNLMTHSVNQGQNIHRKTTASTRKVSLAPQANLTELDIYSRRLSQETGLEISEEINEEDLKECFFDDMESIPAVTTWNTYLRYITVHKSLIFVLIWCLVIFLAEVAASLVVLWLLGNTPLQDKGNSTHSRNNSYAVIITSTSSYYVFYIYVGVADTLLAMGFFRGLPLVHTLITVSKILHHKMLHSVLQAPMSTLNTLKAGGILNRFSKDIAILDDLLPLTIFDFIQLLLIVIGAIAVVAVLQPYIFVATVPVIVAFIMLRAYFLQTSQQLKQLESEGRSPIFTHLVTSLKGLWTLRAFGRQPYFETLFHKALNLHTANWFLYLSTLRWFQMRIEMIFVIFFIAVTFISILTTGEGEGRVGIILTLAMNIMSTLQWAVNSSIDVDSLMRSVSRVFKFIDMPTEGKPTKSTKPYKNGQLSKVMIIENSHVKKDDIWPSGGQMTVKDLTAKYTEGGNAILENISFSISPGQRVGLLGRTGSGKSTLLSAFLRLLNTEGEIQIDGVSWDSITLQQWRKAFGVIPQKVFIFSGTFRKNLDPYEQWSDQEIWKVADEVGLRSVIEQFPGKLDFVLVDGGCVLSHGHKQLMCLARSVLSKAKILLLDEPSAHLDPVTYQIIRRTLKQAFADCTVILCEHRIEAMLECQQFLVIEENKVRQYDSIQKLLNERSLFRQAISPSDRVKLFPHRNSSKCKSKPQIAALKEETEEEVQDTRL

For `COc1ccc(-c2cc(C(=O)O)nc3c2c(C)nn3-c2ccc(C)cc2)cc1` [Compound 6], the CLint scaled at 1 μM is 263 mL/min/kg in [1] (setting [9]), 182 mL/min/kg in [3] and less than 59.8 mL/min/kg in data set [4]. In addition, the Emax on ΔF508 CFTR [2] is 64%. For the same molecule, the EC50 on ΔF508 CFTR [2] came out at 4130 nM.

`COc1ccc(-c2cc(C(=O)O)nc3c2c(C)nn3-c2ccccc2)cc1` [Compound 7]: the results for the CLint scaled at 1 μM in [1] (setting [9]), in data set [3] and in data set [4] were 305 mL/min/kg, 180 mL/min/kg and 173 mL/min/kg, respectively. Also, the Emax at ΔF508 CFTR [2] came to 95%. Moreover, the EC50 on ΔF508 CFTR [2] turned out to be 2480 nM.

As to `Cc1nn(-c2ccccc2)c2nc(C(=O)O)cc(-c3ccc(N4CCOCC4)cc3)c12` [Compound 8], the CLint scaled at 1 μM in data set [5] was less than 45.7 mL/min/kg; in data set [1] (rat hepatocytes), 66.7 mL/min/kg; in data set [3], less than 43.3 mL/min/kg; in [4], less than 28.3 mL/min/kg.

Take `CS(=O)(=O)NC(=O)c1cc(N2CCC(N3CCOCC3)CC2)c2c(C3CCC3)nn(-c3ccc(F)cc3)c2n1` [Compound 50]: the fraction unbound at 4 h, 5 μM was 0.009 in data set [6] and 0.013 in [8]. At ΔF508 CFTR [7] (HBE, read-out: TECC HBE with GLPG2222 % max activation), the Emax came out at 410%. Also, the EC50 at ΔF508 CFTR [7] (read-out: TECC HBE with GLPG2222 EC50) stood at 46 nM. For the same molecule, in data set [1] (setting [9]), the CLint scaled at 1 μM was less than 11.5 mL/min/kg. In the data set “PK rat” (unbound clearance), this molecule registered a CLu rat of 205 mL/min/kg. The clearance in “PK rat” (male, Sprague-Dawley, plasma, 0.1 mg/kg, read-out: CLp rat (converted)) was 1.83 mL/min/kg. In addition, the half-life in “PK rat” (male, Sprague-Dawley, plasma, 0.1 mg/kg, read-out: t1/2 iv rat (converted)) was 3.31 h. For the same molecule, in the data set “PK rat” (male, Sprague-Dawley, plasma, 0.1 mg/kg, read-out: Vss rat), the Vd was 0.47 L/kg.

As usually defined, the EC50 is the concentration at which the effect is half-maximal.

The record behind these values is article PMC11017246, “Discovery of GLPG2737, a Potent Type 2 Corrector of CFTR for the Treatment of Cystic Fibrosis in Combination with a Potentiator and a Type 1 Co-corrector” (Journal of Medicinal Chemistry, 2024).
